From patent US10336707B2, “Heterocyclic derivatives modulating activity of certain protein kinases” (EUDENDRON S.R.L., priority 2014, dated 2019)
pIC50: −log10 of the molar value.

Legend:
EPHB2 = target: T1, EPHB2 (Homo sapiens, UniProt P29323); assay: Radiometric protein kinase assay (33PanQuinase Activity Assay), EPHB2; type: biochemical; conditions: ATP 0.3 μM
T1 construct: either as full-length or enzymatically active fragments; purchased ProQinase GmbH (Freiburg, Germany)
T1 sequence (P29323 19-1055): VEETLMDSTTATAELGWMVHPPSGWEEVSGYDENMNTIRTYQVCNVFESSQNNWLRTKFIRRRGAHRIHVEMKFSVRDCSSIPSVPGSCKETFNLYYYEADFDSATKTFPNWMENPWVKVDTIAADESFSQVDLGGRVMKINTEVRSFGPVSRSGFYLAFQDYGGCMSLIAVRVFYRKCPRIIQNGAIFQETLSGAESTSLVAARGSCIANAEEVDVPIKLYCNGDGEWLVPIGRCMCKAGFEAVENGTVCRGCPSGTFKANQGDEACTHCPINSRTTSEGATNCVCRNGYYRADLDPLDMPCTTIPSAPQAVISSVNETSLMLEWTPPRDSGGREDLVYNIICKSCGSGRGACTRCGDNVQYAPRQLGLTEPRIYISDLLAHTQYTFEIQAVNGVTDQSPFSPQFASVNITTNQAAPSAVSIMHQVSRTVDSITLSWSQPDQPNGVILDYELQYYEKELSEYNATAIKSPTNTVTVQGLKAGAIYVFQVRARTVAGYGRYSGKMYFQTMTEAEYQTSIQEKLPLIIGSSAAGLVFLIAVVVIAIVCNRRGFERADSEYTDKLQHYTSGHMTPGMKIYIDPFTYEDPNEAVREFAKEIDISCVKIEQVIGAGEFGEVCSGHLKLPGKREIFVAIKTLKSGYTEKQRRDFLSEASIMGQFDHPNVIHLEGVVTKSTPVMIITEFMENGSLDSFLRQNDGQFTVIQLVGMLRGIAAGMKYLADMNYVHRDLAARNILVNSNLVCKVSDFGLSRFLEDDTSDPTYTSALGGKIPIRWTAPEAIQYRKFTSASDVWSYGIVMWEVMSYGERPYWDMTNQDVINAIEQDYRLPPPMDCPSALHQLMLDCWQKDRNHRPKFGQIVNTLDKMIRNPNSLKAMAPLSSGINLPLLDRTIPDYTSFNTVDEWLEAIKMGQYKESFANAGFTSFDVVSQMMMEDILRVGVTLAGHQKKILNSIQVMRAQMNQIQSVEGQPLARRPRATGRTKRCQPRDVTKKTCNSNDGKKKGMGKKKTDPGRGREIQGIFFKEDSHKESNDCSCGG
Experimental: (§1) A proprietary radiometric protein kinase assay (33PanQuinase® Activity Assay) developed by ProQuinase GmbH (Freiburg, Germany) was used for measuring the kinase activity of selected protein kinases. All assays were performed in FlashPlates™ wells 96 Perkin Elmer (Boston, Mass., USA) in a reaction volume of 50 μl. The reaction mixture was obtained in 4 steps in the following order: • 1. 10 μl of a solution of non-radioactive ATP in water; • 2. 25 μl of assay buffer/[γ-^33P]-ATP mixture • 3. 5 μl of test sample in 10% DMSO • 4. 10 μl of enzyme/substrate mixture
(§2) All protein kinases provided by ProQinase were expressed in Sf9 insect cells or in E. coli as recombinant GST-fusion proteins or His-tagged proteins, either as full-length or enzymatically active fragments. […] Kinases from external vendors (CAR=Carna Biosciences Inc.; INV=Life Technologies (Invitrogen Corporation); MIL=Merck-Millipore (Millipore Corporation), were expressed, purified and quality-controlled by virtue of the vendors readings.
(§3) A stock solution of compound of formula (I) was diluted to 5×10-04M/100% DMSO. […] Incorporation of 33Pi (counting of “cpm”) was determined with a microplate scintillation counter (Microbeta, Wallac). […]
(§4) Based on each 10 corresponding residual activities, IC50 values were calculated using Prism 5.04 for Windows (Graphpad, San Diego, Calif.). […]

ROS = target: T2, ROS (Homo sapiens, UniProt P08922); assay: Radiometric protein kinase assay (33PanQuinase Activity Assay), ROS; type: biochemical; conditions: ATP 0.3 μM
T2 construct: either as full-length or enzymatically active fragments; purchased ProQinase GmbH (Freiburg, Germany)
Experimental: as §1, §2, §3, §4

T2 sequence (P08922 1883-2347 limits assumed): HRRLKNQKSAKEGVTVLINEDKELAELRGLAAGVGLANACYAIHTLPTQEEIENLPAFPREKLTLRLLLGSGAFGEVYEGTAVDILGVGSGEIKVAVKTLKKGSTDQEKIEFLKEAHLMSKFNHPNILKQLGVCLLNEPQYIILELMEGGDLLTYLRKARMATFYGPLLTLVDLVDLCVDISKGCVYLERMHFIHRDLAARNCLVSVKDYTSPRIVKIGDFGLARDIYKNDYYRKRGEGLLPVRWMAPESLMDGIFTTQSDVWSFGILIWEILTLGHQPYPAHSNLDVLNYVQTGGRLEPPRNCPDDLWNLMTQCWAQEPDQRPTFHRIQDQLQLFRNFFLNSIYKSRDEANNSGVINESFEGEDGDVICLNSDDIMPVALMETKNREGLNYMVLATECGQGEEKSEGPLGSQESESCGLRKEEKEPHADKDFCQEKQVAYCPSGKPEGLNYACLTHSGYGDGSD

Question: What does the source list for `CN1CCN(c2ccc(C(=O)Nc3n[nH]c4cc(-c5ccc(O)cc5)c(Cc5cc(F)cc(F)c5)cc34)c(NC3CCOCC3)c2)CC1` [Example 3, N-[5-[(3,5-difluorophenyl)methyl]-6-(4-hydroxyphenyl)-1H-indazol-3-yl]-4-(4-methylpiperazin-1-yl)-2-(tetrahydropyran-4-ylamino)benzamide]?
Answer: pIC50 (EPHB2): 7.05; pIC50 (ROS): 6.80
